{
  "source": "patent US6458828B1",
  "about": "“Deodorants, foods and beverages, and oral compositions as well as toiletry products” (Lotte Co., Ltd., priority 1999, dated 2002)",
  "key": {"[1]": {"test": "Test 1 deodorizing effect test (head-space gas chromatography, pH 7.5)", "details": "reduction ratio of methylmercaptan vs sample-free system; sample 7.5 mg/ml, pH 7.5, 25 ppm sodium methylmercaptan, 30 minutes at 37° C.", "description": "After 1.0 ml of the sample solution and 0.5 ml of 25 ppm sodium methylmercaptan was added in a vial to shake the same for 30 minutes at 37° C., and then 200 μl of a vapor phase component in the vial was gathered. An amount of formed methylmercaptan was measured by the gas chromatography to compare the same with a sample-free system, thereby to find a reduction ratio of methylmercaptan as a deodorizing coefficient. […] The gas chromatography uses “GC-9A” commercially available from Shimazu Manufacturing Co., Ltd. The measuring conditions were described below. [table]"}, "[2]": {"test": "Deodorizing activity by head-space method using gas chromatography (general statements)", "text": "The resent inventors have researched on various materials to discover the effective deodorant in the head-space method using a gas chromatography."}, "[3]": {"test": "Gas chromatography analysis of sulfides with caramels and maltols", "details": "garlic and onion odor ingredients", "description": "Also, in Japanese laid-open publication 62-169720, it is also disclosed that caramels and maltols (3-hydroxy-2-methyl-γ-pyrone) obtained from heating sucrose or glucose show deodorizing effect against garlic and onion odors. If, however, the odor composition was analyzed by a gas chromatography, then no change in odor composition was observed."}, "[4]": {"test": "Test 3 deodorizing effect test against ammonia (Kitagawa detecting tube)", "details": "50 mg sample in 1.96 ml water, 40 μl ammonia solution (0.28%), 5 minutes at 37° C.", "description": "Each of 50 mg of the palatinose-derived thermal decomposition of Example 1 and sodium copper chlorophyllin was dissolved into 1.96 ml of water in 100 ml of the vial respectively. Then, 40 μl of an ammonia solution (0.28%) was added and shaken for 5 minutes at 37° C. and 100 ml of the vapor phase component in the vial was measured under a vacuum pressure by use of a Kitagawa detecting tube (ammonia No.3). The deodorizing rate of each sample was calculated from the concentration of ammonia in case of addition of no sample."}},
  "data": [
    {"molecule": "OC[C@H]1O[C@H](OC[C@H]2OC(O)(CO)[C@@H](O)[C@@H]2O)[C@H](O)[C@@H](O)[C@@H]1O", "note": "(some centres unmarked) [Palatinose, palatinose]", "values": [
      {"measurement": "Deodorant coefficient (%)", "setting": "[1]", "value": 0.0, "unit": "%"},
      {"measurement": "deodorizing activity / effect against methyl mercaptan (in words)", "setting": "[2]", "value": "does not provide such the effect"}
    ]},
    {"molecule": "OC[C@H]1O[C@@](CO)(O[C@H]2O[C@H](CO)[C@@H](O)[C@H](O)[C@H]2O)[C@@H](O)[C@@H]1O", "note": "[Sucrose, sucrose]", "values": [
      {"measurement": "Deodorant coefficient (%)", "setting": "[1]", "value": 0.0, "unit": "%"}
    ]},
    {"molecule": "Cc1occc(=O)c1O", "note": "[maltols, 3-hydroxy-2-methyl-γ-pyrone]", "values": [
      {"measurement": "change in composition of sulfides (methyl marcaptan, allyl marcaptan) by gas chromatography", "setting": "[3]", "value": "no change in the composition was observed"}
    ]},
    {"molecule": "sodium copper chlorophyllin", "values": [
      {"measurement": "Rate of deodorizing (%)", "setting": "[4]", "value": 9.2, "unit": "%"}
    ]}
  ]
}
